We go through four molecules from ChEMBL document CHEMBL1201862, “PubChem BioAssay data set” (2004).

Common to all, as to assay: growth of human tumour cells (NCI), 48 h
The subject of experiment [1] is KM12.
In experiment [2] the test system is A498.
The test system of experiment [3] is OVCAR-3.
Experiment [4] relates to SK-MEL-28.
Experiment [5] concerns SR.
The subject of experiment [6] is Hs-578T.
Experiment [7] concerns U-251.
For experiment [8], the system named is ACHN.
Experiment [9] relates to UO-31.
For experiment [10], the system named is NCI-H522.
Experiment [11] deals with A549.
Experiment [12] deals with Malme-3M.
Experiment [13] has as its system OVCAR-5.
Experiment [14] concerns HOP-92.
For experiment [15], the system named is SK-OV-3.
For experiment [16], the system named is NCI-H226.
Experiment [17] deals with HL-60.
Experiment [18] relates to SK-MEL-5.
Experiment [19] deals with T47D.
Experiment [20] deals with SF-268.

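A five-concentration, 48-hour dose response in 96-well plates underlies each endpoint, interpolated linearly between surrounding concentrations. GI50 is the concentration that inhibits growth by half.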 The source made the active and inactive calls. No stated cut-off is given here; in the data, active = GI50 up to about 1.1 µM and inactive = higher.

With `CCC(C)NC1=NCC(C)S1` (stereo not given), the GI50 in [1], in experiment [2], in [3], in experiment [4], in experiment [5] and in experiment [6] was > 100 µM (inactive) each time. Besides, the GI50 in [7], in experiment [8], in experiment [9], in experiment [10], in experiment [11] and in [12] was > 100 µM (inactive) throughout. Besides, the GI50 in [13], in experiment [14], in experiment [15], in experiment [16], in [17] and in experiment [18] was > 100 µM (inactive) in each case. Further, the GI50 in [19] and in experiment [20] was > 100 µM (inactive) throughout.

As to `O=[N+]([O-])C(/C=C(\Cl)[N+](=O)[O-])=C(N1CCOCC1)N1CCOCC1`, the GI50 in experiment [1] is > 100 µM (inactive); in [2], 27 µM (inactive); in [3], 19.7 µM (inactive); in [4] it was > 100 µM (inactive); in experiment [5], 39.6 µM (inactive); in [6], 0.232 µM (active). For the same molecule, the GI50 was 24.6 µM (inactive) in experiment [7]; 41.7 µM (inactive) in experiment [8]; 36.6 µM (inactive) in [9]; 41.8 µM (inactive) in experiment [10]; 19.4 µM (inactive) in experiment [11]; 27.2 µM (inactive) in experiment [12]. Also, the GI50 in experiment [13] was 21.2 µM (inactive); in experiment [14] it was 25.4 µM (inactive); in experiment [15], > 100 µM (inactive); in experiment [16] it was > 100 µM (inactive); in experiment [17], 18.4 µM (inactive); in [18] it was > 100 µM (inactive). The GI50 in experiment [19] is 24.5 µM (inactive); in [20], 35.5 µM (inactive).

With `CN(CCCNC(=O)c1nn(-c2ccccc2)c2c1ccc1ccccc12)CCCNC(=O)c1nn(-c2ccccc2)c2c1ccc1ccccc12`, the GI50 in [1] was 2.16 µM (inactive); in experiment [2] it was 1.65 µM (inactive); in experiment [3], 1.5 µM (inactive); in [4], 1.74 µM (inactive); in experiment [5], 1.24 µM (inactive); in [6], 2.58 µM (inactive). Also, the GI50 in [7] is 1.6 µM (inactive); in experiment [8], 1.74 µM (inactive); in experiment [9], 1.52 µM (inactive); in [10], 1.79 µM (inactive); in [11] it was 1.84 µM (inactive); in experiment [12], 1.77 µM (inactive). The GI50 in experiment [13] was 2.3 µM (inactive); in experiment [14] it was 1.83 µM (inactive); in [15], 1.83 µM (inactive); in [16] it was 2.08 µM (inactive); in [17], 0.221 µM (active); in experiment [18], 1.77 µM (inactive). Further, the values for the GI50 in experiment [19] and in experiment [20] were 1.82 µM (inactive) and 1.98 µM (inactive), respectively.

As for `CCCCCCCCCCCCCCCCCCOP(=O)([O-])OC1CC[N+](C)(C)CC1` [PERIFOSINE], the GI50 in experiment [1] was 0.53 µM (active); in [2], 3.22 µM (inactive); in experiment [3], 13.2 µM (inactive); in [4], 17.9 µM (inactive); in experiment [5] it was 1.11 µM (active); in [6] it was 13 µM (inactive). For the same molecule, the GI50 was 12.4 µM (inactive) in experiment [7]; 12.4 µM (inactive) in [8]; 8.91 µM (inactive) in [9]; 2.97 µM (inactive) in experiment [10]; 10.7 µM (inactive) in [11]; 7.06 µM (inactive) in experiment [12]. Further, the GI50 in experiment [13] was 2.52 µM (inactive); in experiment [14], 3.38 µM (inactive); in experiment [15], 5.64 µM (inactive); in experiment [16], 11.2 µM (inactive); in experiment [17], 1.19 µM (inactive); in experiment [18] it was 15.8 µM (inactive). The GI50 in experiment [19] is 17.9 µM (inactive); in [20], 9.89 µM (inactive).
